Patent EP4606382A1, “INHIBITORS OF TANGO1 ACTIVITY AND METHODS OF USE THEREOF” (Fundació Centre de Regulació Genòmica, priority 2024, dated 2025)
Ends that are not written are not given here.

Test system: normal human skin fibroblasts
Experiment: LDH release cytotoxicity assay
Assay type: cell-based
Conditions: primary human skin fibroblasts
Method: To test if the peptides efficiently reduce collagen secretion also in primary cells derived from human individuals, normal human skin fibroblasts, the key producers of collagen in connective tissues, were treated with the peptides P2 and P5.
Cytotoxic effects induced by peptide treatment were determined by lactate dehydrogenase (LDH) levels in fibroblast supernatants using Cytotoxicity Assay (Promega G1780) according to the manufacturer's instructions.

Substance	cytotoxic effects (LDH release)
LEKEEKLSKVDEKISHATEELETYRKRAKDLGLRKRLRKFRNK-NH2 [Peptide P5]	neither P2 nor P5 nor P2+P5 exerted cytotoxic effects
LRQKVEILNELYQQKEMALQKKLSQEEYERGLRKRLRKFRNK-NH2 [Peptide P2]	neither P2 nor P5 nor P2+P5 exerted cytotoxic effects
